# Test results taken from patent US20070212366A1, “Use Of Mrp4-Inhibitors For The Treatment And/Or Prophylaxis Of Cardiovascular Diseases” (ERNST-MORITZ-ARNDT-UNIVERSITAT GREIFSWALD, priority 2003, published 2007).
# Tests used:
# [1] = target: T1, MRP4 (Homo sapiens, UniProt O15439); experiment: Inhibition of vanadate-sensitive [3H]ADP transport in dense platelet granules (vesicle rapid filtration); assay type: biochemical; conditions: for [^3H]ADP transport (% of control): dense platelet vesicles, [3H]ADP 1 μmol/l, 0.4 mmol/l ATP ± 1 mmol/l orthovanadate, 2 min, mean ± SD of 3; for vanadate-sensitive ADP accumulation in the dense granular fraction of the sucrose gradient: result in words, refers to Table 1
# T1 construct: Dense platelet vesicles (100 μg of protein) were incubated with [3H]ADP; from tissue; host or cells: platelets (crude membrane vesicles; dense granule fraction of a sucrose gradient)
# T1 sequence (O15439 1-1325): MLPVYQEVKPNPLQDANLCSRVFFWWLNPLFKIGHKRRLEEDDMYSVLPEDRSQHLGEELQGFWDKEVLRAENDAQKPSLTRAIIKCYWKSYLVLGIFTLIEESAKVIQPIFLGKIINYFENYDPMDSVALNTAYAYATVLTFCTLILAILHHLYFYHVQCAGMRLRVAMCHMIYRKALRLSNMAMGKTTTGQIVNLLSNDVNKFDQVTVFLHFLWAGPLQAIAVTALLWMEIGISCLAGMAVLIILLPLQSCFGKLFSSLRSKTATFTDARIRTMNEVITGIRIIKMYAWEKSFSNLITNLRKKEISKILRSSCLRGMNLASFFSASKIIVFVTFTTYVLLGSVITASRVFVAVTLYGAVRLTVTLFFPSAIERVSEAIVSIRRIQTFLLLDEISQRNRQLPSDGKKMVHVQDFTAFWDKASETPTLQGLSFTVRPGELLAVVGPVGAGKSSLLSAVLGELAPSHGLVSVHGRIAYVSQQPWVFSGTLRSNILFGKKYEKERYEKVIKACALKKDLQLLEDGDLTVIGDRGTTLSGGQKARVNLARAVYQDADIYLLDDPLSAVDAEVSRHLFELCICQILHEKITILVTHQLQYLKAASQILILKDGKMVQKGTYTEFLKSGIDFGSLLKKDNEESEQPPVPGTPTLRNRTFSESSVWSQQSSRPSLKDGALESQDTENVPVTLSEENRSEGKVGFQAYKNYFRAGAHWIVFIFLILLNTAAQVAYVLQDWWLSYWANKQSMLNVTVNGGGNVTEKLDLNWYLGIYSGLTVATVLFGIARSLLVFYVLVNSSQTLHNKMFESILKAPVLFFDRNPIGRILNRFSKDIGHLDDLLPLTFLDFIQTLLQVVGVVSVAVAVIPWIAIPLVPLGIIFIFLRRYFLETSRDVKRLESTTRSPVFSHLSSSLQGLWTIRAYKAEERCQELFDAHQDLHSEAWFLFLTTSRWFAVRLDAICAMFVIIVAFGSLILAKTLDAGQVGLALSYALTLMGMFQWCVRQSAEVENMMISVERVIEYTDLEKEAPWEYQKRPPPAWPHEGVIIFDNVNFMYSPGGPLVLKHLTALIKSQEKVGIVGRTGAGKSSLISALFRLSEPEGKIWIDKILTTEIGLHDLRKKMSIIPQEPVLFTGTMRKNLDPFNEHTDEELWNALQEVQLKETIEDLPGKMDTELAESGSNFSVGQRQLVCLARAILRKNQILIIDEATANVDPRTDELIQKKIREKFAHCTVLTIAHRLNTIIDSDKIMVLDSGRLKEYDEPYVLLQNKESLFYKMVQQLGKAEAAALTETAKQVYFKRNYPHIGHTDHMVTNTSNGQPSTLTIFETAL
# Source text: In order to determine whether the observed difference in the [^3H]ADP uptake by the vesicles in the presence and absence of orthovanadate reflects a transmembrane movement rather than binding to the membrane surface, the influence of high osmolarity was investigated. […] In the presence of orthovanadate, 1 mol/l of sucrose only slightly influenced the [^3H]ADP association to the vesicles. […] Furthermore, the vanadate-sensitive ADP accumulation in the dense granular fraction of the sucrose gradient could be detected and was inhibited by dipyridamole, MK571 and cGMP (Table 1).
# Transport of [^3H]ADP. An ATP-dependent transport of [3H]ADP (1 μmol/l) in the membrane vesicles was measured by rapid filtration, as is described for [^3H]cGMP, with the exception that the vesicles in incubation buffer supplemented with 0.4 mmol/l ATP, 10 mmol/l MgCl2 are incubated in the presence or absence of sodium orthovanadate (1 mmol/l). In order to investigate the effect of the osmolarity of the extra-vesicular medium, the vesicles were preincubated for 45 minutes at 4° C. in a 1 mol/l sucrose-containing buffer or in standard incubation buffer which contained 250 mmol/l of sucrose.
# Dense platelet vesicles (100 μg of protein) were incubated with [3H]ADP (1 μmol/l) in the presence of 0.4 mmol/l of ATP or 0.4 mmol/l of ATP+1 mmol/l of orthovanadate for two minutes, and the difference in the vesicle-associated radioactivity was calculated. The compounds listed were added to the incubations with and without orthovanadate in the concentrations indicated. The difference is indicated as the percentage of the control (mean value+standard deviation of 3 determinations). The control value of the vanadate-sensitive [^3H]ADP transport in this experiment was […] of protein^−1 after 2 minutes.
# [2] = target: T1, MRP4; experiment: [3H]ADP transport in crude platelet membrane vesicles; assay type: biochemical; conditions: ATP 0.4 mmol/l plus 1 mM orthovanadate versus ATP alone; crude membranes
# Experimental: In order to determine whether ADP can be a substrate for MRP4-mediated, ATP-dependent transport, the uptake of [3H]ADP (1 μM) in platelet membrane vesicles (crude membranes) in the presence of 0.4 mmol/l of ATP was measured over a period of 2 minutes. […] If ATP was replaced by 5′-AMP or the non-hydrolyzable ATP analog AMPPNP, which was customarily used in control incubations in order to calculate the ATP-dependent component of the transport, approximately a three to four-fold higher background binding of the [^3H]ADP to the membranes was observed, which increased only slightly with time (not shown). […] In order to show the ATP dependence and simultaneously to ensure identical initial ADP concentrations, the transport was measured in the presence of ATP with or without 1 mM orthovanadate, an inhibitor of ATP hydrolysis. A time-dependent increase in the vesicle-associated radioactivity in the presence of ATP was observed, in spite of the fact that [^3H]ADP was diluted by simultaneous formation of unlabeled ADP. […]
# Transport of [^3H]ADP. An ATP-dependent transport of [3H]ADP (1 μmol/l) in the membrane vesicles was measured by rapid filtration, as is described for [^3H]cGMP, with the exception that the vesicles in incubation buffer supplemented with 0.4 mmol/l ATP, 10 mmol/l MgCl2 are incubated in the presence or absence of sodium orthovanadate (1 mmol/l). […]
Compound,[^3H]ADP transport (% of control) ([1]; 10 μM substance),[^3H]ADP transport (% of control) ([1]; 100 μM substance),vanadate-sensitive ADP accumulation in the dense granular fraction of the sucrose gradient [1],vesicle-associated radioactivity ([3H]ADP) [2]
"OCCN(CCO)c1nc(N2CCCCC2)c2nc(N(CCO)CCO)nc(N3CCCCC3)c2n1 [Dipyridamole, dipyridamole]",52.7 ± 5.2 % of control,8.8 ± 0.4 % of control,inhibited,
CN(C)C(=O)CCSC(SCCC(=O)O)c1cccc(/C=C/c2ccc3ccc(Cl)cc3n2)c1 (centres unmarked) [MK571],,40.7 ± 3.9 % of control,inhibited,
"Nc1nc2c(ncn2[C@@H]2O[C@@H]3COP(=O)(O)O[C@H]3[C@H]2O)c(=O)[nH]1 [cGMP, cyclic GMP]",,28.7 ± 2.3 % of control,inhibited,
"[Na+].[Na+].[Na+].[O]=[V]([O-])([O-])[O-] [orthovanadate, sodium orthovanadate]",,,,significantly reduced
